In PubChem BioAssay (NCI):
“And” between values parts separate entries of the source, which are not always exact repeats. Identical values can stand only once.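 Step 1: Grow cells in 96-well plates. Step 2: Expose to compound for 48 hours at 5 concentrations. Step 3: Interpolate endpoints linearly; if unreached, use highest concentration. GI50 is the concentration that inhibits growth by half. The concentration for full growth arrest is given as TGI.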

Key:
Test in all cases: growth of human tumour cells (NCI), 48 h
HCT-15 colon = test system: HCT-15 colon
UACC-62 melanoma = test system: UACC-62 melanoma
HL-60(TB) leukemia = test system: HL-60(TB) leukemia
SF-539 CNS = test system: SF-539 CNS
LOX IMVI melanoma = test system: LOX IMVI melanoma
SK-MEL-28 melanoma = test system: SK-MEL-28 melanoma
T-47D breast = test system: T-47D breast
SR leukemia = test system: SR leukemia
KM20L2 colon = test system: KM20L2 colon

| SMILES | GI50 (HCT-15 colon) | TGI (HCT-15 colon) | GI50 (UACC-62 melanoma) | TGI (UACC-62 melanoma) | GI50 (HL-60(TB) leukemia) | TGI (HL-60(TB) leukemia) | GI50 (SF-539 CNS) | TGI (SF-539 CNS) | GI50 (LOX IMVI melanoma) | TGI (LOX IMVI melanoma) | GI50 (SK-MEL-28 melanoma) | TGI (SK-MEL-28 melanoma) | GI50 (T-47D breast) | TGI (T-47D breast) | GI50 (SR leukemia) | TGI (SR leukemia) | TGI (KM20L2 colon) |
| --- | --- | --- | --- | --- | --- | --- | --- | --- | --- | --- | --- | --- | --- | --- | --- | --- | --- |
| CC(=O)N1N=C2/C(=C/c3ccc(Cl)cc3)CC(C)CC2C1c1ccc(Cl)cc1 (stereo not given) | 31.9 µM | > 100 µM | 21.1 µM | 52.2 µM | 13.5 µM | 59.5 µM | 19.1 µM | 38 µM | 18.1 µM | 34.6 µM | 23.7 µM | 53.8 µM | 12.4 µM | 61.8 µM | 14.6 µM | 53.8 µM | – |
| CN(C)c1ccc(/C=C/C2=[N+](C)c3ccccc3C2(C)C)cc1 | 2.66 µM | 18.6 µM | 1.36 µM | 19.2 µM | 0.231 µM | 0.801 µM | 1.65 µM | 14 µM | 0.339 µM | 10.6 µM | 1.03 µM | 18 µM | 0.401 µM | 9.29 µM | 0.13 µM | 13.9 µM | – |
| Cn1cc(C2=C(c3cn(C)c4ccccc34)C(=O)NC2=O)c2ccccc21 | 0.729 µM | > 25 µM | 2.24 µM | > 25 µM | 0.747 µM | 5.1 µM | 0.738 µM | 5.25 µM | 1.8 µM | > 25 µM | 3.71 µM | > 25 µM | 1.8 µM | > 25 µM | 0.248 µM | > 25 µM | – |
| CCCCCCCCC(=O)OCC(CS[As](C)C)OC(=O)CCCCCCCC (stereo not given) | 0.629 µM | 10.4 µM | 0.904 µM | 15 µM | 0.285 µM | 1.78 µM | 0.49 µM | 1.28 µM | 1.09 µM | 5.7 µM | 1.12 µM | 16.2 µM | 0.267 µM | 20.1 µM | 1.03 µM | 5.41 µM | – |
| N#C[Se]CCCNS(=O)(=O)C1CC2C=CC1C2 (stereo not given) | 1.47 µM | 3.65 µM | 1.59 µM | 3.38 µM | 0.326 µM | 1.31 µM | 0.413 µM | 1.56 µM | 0.186 µM | 0.376 µM | 0.486 µM | 2.77 µM | 2.55 µM | 8.28 µM | 0.57 µM | > 100 µM | – |
| NNC(=O)N/N=C1\C(=O)N(c2ccc(Cl)c(Cl)c2)C(=O)C(=O)C1c1nc2ccccc2s1 (stereo not given) | – | > 100 µM | – | > 100 µM | – | > 100 µM | – | > 100 µM | – | – | – | > 100 µM | – | – | – | > 100 µM | > 100 µM |
| O=C(c1ccco1)c1c(C(F)(F)F)n([O-])c2ccc(Cl)cc2[n+]1=O | 0.372 µM | 1.72 µM | 0.574 µM | 1.99 µM | 0.346 µM | 6.33 µM | 0.37 µM | 0.924 µM | 0.0951 µM | 0.287 µM | 2.04 µM | 5.71 µM | 1.41 µM | 3.55 µM | 0.204 µM | 0.574 µM | – |
| CC(=O)Oc1ccc(/C(=C(\C)c2ccc(Cl)cc2)c2ccc(OCCN3CCCCC3)cc2)cc1 | 1.61 µM | 3.19 µM | 1.86 µM | 3.73 µM | 2.09 µM | 4.35 µM | 1.84 µM | 3.57 µM | 1.65 µM | 3.01 µM | 2.01 µM | 3.89 µM | 1.09 µM | 4.37 µM | 0.739 µM | 3.06 µM | – |
| Cc1ccc(Cl)c(Nc2ccccc2C(=O)O)c1Cl | 22.7 µM | 54.2 µM | 16.3 µM | 32.7 µM | 22.7 µM | 51.4 µM | 23.6 µM | 51.3 µM | 18.7 µM | 44.9 µM | 30.5 µM | 89 µM | 33.4 µM | > 100 µM | 25.4 µM | 78.1 µM | – |
| O=C(Nc1ccc(/C=C/c2ccc(NC(=O)c3cc(S(=O)(=O)O)c4cccnc4c3O)cc2S(=O)(=O)O)c(S(=O)(=O)O)c1)c1cc(S(=O)(=O)O)c2cccnc2c1O | > 41.6 µM | > 71.5 µM | 2.5 µM | 37.6 µM | 0.337 µM | 3.2 µM | 11.3 µM | > 54.9 µM | 3.07 µM | > 28 µM | 25.5 µM | > 62.7 µM | > 49.6 µM | > 100 µM | 0.0205 µM | 0.17 µM | – |
| COc1cc2c(cc1OC)C1Cc3cc(OC)c(OC)cc3C(C2)N1C | – | > 100 µM | – | > 75 µM | – | > 75 µM | – | > 75 µM | – | > 75 µM | – | > 100 µM | – | > 75 µM | – | – | > 100 µM |
| CCN1Cc2nc3sc(C)c(C)c3c(=O)n2C=C1C | 3.5 µM | 19 µM | 5.83 µM | 24.7 µM | 2.1 µM | 6.48 µM | 12.9 µM | 34.4 µM | 4.64 µM | 17.1 µM | 6.65 µM | 21.3 µM | 4.17 µM | > 100 µM | 1.58 µM | 8.49 µM | – |
| COc1cc(C(=O)Nc2cc(OC)c3ccn(C)c3c2)cc2c1C[C@]1(C)CC[C@@H](O)C(C)(C)[C@H]1O2 | 1.05 µM | > 100 µM | 0.257 µM | 1.31 µM | 0.074 µM | 3.43 µM | 0.0632 µM | 2.22 µM | 1.01 µM | 10.1 µM | 1.77 µM | 37.1 µM | 1.8 µM | 14.8 µM | 0.0837 µM | > 100 µM | – |
| COc1ccc(/C=C/C(=O)c2ccc(OC)c(OC)c2)cc1O | 3.41 µM | 32.9 µM | 11.2 µM | 24.3 µM | 13.9 µM | 52.2 µM | 2.49 µM | 7.34 µM | 5.69 µM | 18.6 µM | 12.9 µM | 27.4 µM | 5.74 µM | 25.5 µM | 0.393 µM | > 100 µM | – |
| Cc1c(O)c2c(c(O)c1Br)C(=O)C=CC2=O | 0.451 µM | 1.14 µM and 1.94 µM | 1.44 µM | 2.1 µM and 3.21 µM | – | 0.113 µM and 0.016 µM | 1.68 µM | 1.66 µM and 3.1 µM | 0.215 µM | 1.54 µM and 0.703 µM | 1.59 µM | 2.33 µM and 3.07 µM | – | 2.01 µM | – | 0.73 µM | – |
